# Test results: US8895695B2, “Template-fixed beta-hairpin peptidomimetics with CXCR4 antagonizing activity” (priority 2003, dated 2014)
# Bridge positions count the residues as written; N and C are the ends. Square brackets hold non-standard residues; d marks the D form. Peptide text beside a SMILES is read from it. 2Nal = N[C@@H](Cc1ccc2ccccc2c1)C(=O)O; Cit = NC(=O)NCCC[C@H](N)C(=O)O
# Assays:
# CCRF-CEM cells = assay: Chemotactic assay (cell migration assay); format: cell-based; conditions: 1 nM SDF-1, 4 hours
# Description: (§1) All fine chemicals came from Merck (Darmstadt, Germany).
# 2.7. Chemotactic Assay (Cell Migration Assay)
# The chemotactic response of CCRF-CEM cells to a gradient of stromal cell-derived factor 1α (SDF-1) was measured using disposable assay plates from Neuroprobe (5μ pore size) (Gaithersburg, Md.), according to the manufacturer's directions and references therein [especially ref. 8, below]. Briefly, one 175 cm^2 flask was washed once with Dubecco's phosphate buffered saline (DPBS), and trypsinized for 10 minutes or until cells had lifted. The trypsin was neutralized by the addition of fresh medium containing serum and the cells were pelleted, washed once in DPBS, and resuspended at 1-0.5×10^7 cells/ml in RPMI+0.5% bovine serum albumin (BSA). 45 μl of cell suspension were mixed with 5 μl of 10-fold concentrated PEM peptide diluted in the same assay medium. […] The optical absorbance at 595 nm (ABS595) was read using a Tecan Genios plate reader with Magellan software. The number of cells migrated was determined by comparing ABS595 values against a standard curve generated with a known number of cells in the assay plate and were plotted against SDF-1 concentration to obtain a sigmoidal curve and to determine the IC50 values. The values for IC50 were determined using the Trendline function in Microsoft Excel by fitting a logarithmic curve to the averaged datapoints.
# [1] = Cytotoxicity assay (MTT reduction), HELA cells; conditions: human, HELA cells (Acc57);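 further: MTT reduction read as absorbance at 595 nm, blank-corrected and expressed as percent growth relative to the time-zero cell reading, triplicate wells per concentration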
# [2] = test system: 'CCR5' cells / Hut/4-3 cells co-cultivation; assay: FIGS-Assay; format: cell-based; conditions: 200 nM peptide, 48 hours of co-cultivation
# Description: The assay was performed according to ref. 5, below. Stock dilutions of the peptides (10 mM) were prepared by dissolving in 10 mM Tris-HCl at room temperature. Stock solutions were kept at +4° C., light protected. Working dilutions were prepared extemporaneously by serial dilution in Phosphate Buffered Saline (PBS) and added in a final volume of 10 μl directly to the cell cultures. After 48 hours of co-cultivation the cultures were rinsed with PBS and then exposed to glutaraldehyde/formaldehyde (0.2%/2%) in PBS for five minutes. For photometric quantification the fixed cultures were subsequently incubated with ortho-nitro-phenyl-galactopyranoside (ONPG) as a β-galactosidase substrate, which was enzymatically converted into the chromophore ortho-nitrophenol (ONP). The read out is directly obtained by measuring optical density of wells at 405 nm in an iEMS 96well-plate reader.
# as §1
# [3] = test system: human red blood cells (hRBC); assay: Hemolysis; format: cell-based
# Method in brief: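 Washed fresh human erythrocytes (20% v/v, about 0.9×10^9 cells/ml final) incubated with peptide at 100 μM for 1 h at 37° C. Supernatant diluted 20-fold and OD540 read. Percent hemolysis relative to 0.1% Triton X-100 in H2O (100%), with PBS alone as 0%.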
# CXCR4 = CXCR4 (Homo sapiens, UniProt P61073); assay: Ca2+-assay method 1: CXCR4-antagonizing activity; format: cell-based; set-up: expressed in transfected cells; conditions: method 1 (Ex. 1-53), CXCR4 transfected pre-B cells, Fura-2; read-out: IC50 (nM) Ca^2+ assay
# CXCR4, sequence (P61073 whole entry): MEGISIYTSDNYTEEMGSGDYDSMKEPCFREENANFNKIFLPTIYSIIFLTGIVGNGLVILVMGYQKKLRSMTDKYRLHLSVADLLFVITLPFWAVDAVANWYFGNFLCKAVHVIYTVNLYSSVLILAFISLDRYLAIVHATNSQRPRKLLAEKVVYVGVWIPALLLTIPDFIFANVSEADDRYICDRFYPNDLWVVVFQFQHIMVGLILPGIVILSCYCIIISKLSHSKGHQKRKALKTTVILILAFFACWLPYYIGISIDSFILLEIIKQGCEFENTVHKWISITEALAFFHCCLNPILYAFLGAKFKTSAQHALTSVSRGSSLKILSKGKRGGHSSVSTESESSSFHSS
# Description: 2.2. Ca^2+-Assay: CXCR4-Antagonizing Activity of the Peptides.
# The cells were washed free from Fura-2-AM with a platelet centrifuge and resuspended in 800 μl MSB containing 5 mM D-Glucose. The peptides to be administered were diluted to a 100 fold end concentration in MSB/0.2% PPL, and 8 μl were injected. […] Measurements were done under continuous stirring at 37° C. The signal intension was calibrated with 3 mM CaCl2/[…] lonomycin (maximal fura-2-acetoxymethylester saturation) and 10 μM MnCl2 (minimal Fura-2-acetoxymethylester saturation) and [Ca^2+]i-changes are presented in % fora-2-acetoxymethylester saturation. The rate of [Ca^2+]i-changes was calculated on the basis of the initial [Ca^2+]i-changes and plotted in dependence of chemokine concentration to obtain a sigmoidal curve and to determine the IC50 values.
# Osmolarity: 310 mOsm adjusted with NaOH or HCl, adjusted with H2O or PBS.
# MSB plus: 5 mM D-glucose in MSB (50 mg/50 mL).
# Fura 2-acetoxymethylester: 1 mM stock solution in dimethylsulfoxide.
structure (smiles),measurement,setting,value
N=C(N)NCCC[C@@H]1NC(=O)CNC(=O)CNC(=O)[C@H](CCCNC(=N)N)NC(=O)[C@@H]2CSSC[C@H](NC(=O)[C@H](Cc3ccc4ccccc4c3)NC(=O)[C@H](CCCNC(=N)N)NC1=O)C(=O)N[C@@H](Cc1ccc(O)cc1)C(=O)N[C@@H](CCCNC(N)=O)C(=O)N[C@@H](CCCCN)C(=O)N1CCC[C@@H]1C(=O)N1CCC[C@H]1C(=O)N[C@@H](Cc1ccc(O)cc1)C(=O)N[C@@H](CCCNC(=N)N)C(=O)N[C@@H](CCCNC(N)=O)C(=O)N2 [Ex. 52] (cyclo(YR[Cit]CRGGRR[2Nal]CY[Cit]K[dP]P); disulfide 4-11),IC50,CCRF-CEM cells,2.75 µM
same,CC50 at 48 h,[1],99000 nM
same,FIGS % inhibition at 200 nM,[2],95.4%
same,Hemolysis at 100 μM,[3],0%
same,IC50,CXCR4,3.1 nM
